{
  "source": "patent US10738028B2",
  "about": "“Spiro three-membered ring, spiro five-membered ring peptide deformylase inhibitor and use thereof in antibacteria and anti-tumor” (priority 2016, dated 2020)",
  "assay_type_in_all_cases": "cell-based",
  "key": {"[1]": {"tested_on": "Enterococcus faecalis (EFA)", "test": "MIC, two-fold agar dilution (CLSI), clinical isolates", "method_in_brief": "(§1)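 Following the American Clinical and Laboratory Standards Institute procedure, agar two-fold dilution served to determine minimum inhibitory concentrations.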"}, "[2]": {"tested_on": "Enterococcus faecium (EFM)", "test": "MIC, two-fold agar dilution (CLSI), clinical isolates", "method_in_brief": "as §1"}, "[3]": {"tested_on": "Escherichia coli (including ESBLs, non-ESBLs)", "test": "MIC, two-fold agar dilution (CLSI), clinical isolates", "method_in_brief": "as §1"}, "[4]": {"tested_on": "Moraxella catarrhalis (BCA)", "test": "MIC, two-fold agar dilution (CLSI), clinical isolates", "method_in_brief": "as §1"}, "[5]": {"tested_on": "methicillin-resistant Staphylococcus aureus (MRSA)", "test": "MIC, two-fold agar dilution (CLSI), clinical isolates", "method_in_brief": "as §1"}, "[6]": {"tested_on": "methicillin-resistant Staphylococcus epidermidis (MRSE)", "test": "MIC, two-fold agar dilution (CLSI), clinical isolates", "method_in_brief": "as §1"}, "[7]": {"tested_on": "methicillin-sensitive Staphylococcus aureus (MSSA)", "test": "MIC, two-fold agar dilution (CLSI), clinical isolates", "method_in_brief": "as §1"}, "[8]": {"tested_on": "methicillin-sensitive Staphylococcus epidermidis (MSSE)", "test": "MIC, two-fold agar dilution (CLSI), clinical isolates", "method_in_brief": "as §1"}, "[9]": {"tested_on": "HCT-116 colorectal cancer cell line", "test": "CCK-8 proliferation inhibition", "conditions": "Homo sapiens, HCT-116, 72 h, concentration of 30 μM, 72 hours, CCK-8", "method_in_brief": "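2000 cells/well, McCoy's 5A + 10% newborn bovine serum; overnight attach, 37° C./5% CO2. Cpd from DMSO stock diluted in medium, 72 h. Readout: CCK-8 (1:10). Ctrl 1‰ DMSO.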"}, "[10]": {"tested_on": "A549 lung cancer cell line", "test": "CCK-8 proliferation inhibition", "conditions": "Homo sapiens, A549, 72 h, concentration of 30 μM", "excerpt": "(§2) 2. The present invention adopts the CCK-8 method to determine the proliferation inhibition effect of the spiro three-membered ring, spiro five-membered ring peptide deformylase inhibitor as described in Examples 1-80 against colorectal cancer cells, lung cancer cells, gastric cancer cells, liver cancer cells, and the like. […] The compound having the best activity synthesized in Example 64 was further tested for its inhibitory activity against other tumor cells including T cell leukemia, acute myeloid leukemia, cervical cancer, breast cancer, prostate cancer and osteosarcoma, and the like (see Table 7).\n(§3) (1) HCT-116 colorectal cancer cell line, A549 lung cancer cell line, MGC-803 gastric cancer cell line, BEL-7402 liver cancer cell line, Jurkat T cell leukemia cell line, HL60 acute myeloid leukemia cell line, Hela cervical cancer cell line, MCF-7 breast cancer cell line, PC3 prostate cancer cell line and SAOS-2 osteosarcoma cell line were made into single cell suspension, 180 μL of which was inoculated into 96-well culture plate, which was cultured overnight in CO2 incubator (37° C., 5% CO2, 95% air).\n(§4) (2) Each of the spiro three-membered ring, spiro five membered ring peptide deformylase inhibitors was dissolved in DMSO, and was further formulated into drug solution with required different final concentration using corresponding cell culture medium. The drug solutions were added to the above cells respectively (20 μL/well), with the control group added with 1‰ DMSO, and cultured in a CO2 incubator for 72 hours.\n(§5) (3) After incubation for 72 hours, the culture solution was decanted, and 100 μL of 1:10 diluted CCK-8 solution was added.\n(§6) Wherein, in step (1), the concentration of the single cell suspension was 2000 cells/well.\n(§7) Wherein, in step (2), HCT-116 cells were cultured in McCoy's 5A medium (containing 10% newborn bovine serum, 1% double antibody); A549 and PC3 cells were cultured in F12 medium (containing 10% newborn bovine serum, 1% double antibody); MGC-803, BEL-7402, SAOS-2, Jurkat and HL60 cells were cultured in 1640 medium (containing 10% newborn bovine serum, 1% double antibody); and MCF-7 and Hela cells were cultured in DMEM high glucose medium (containing 10% newborn bovine serum, 1% double antibody)."}, "[11]": {"tested_on": "BEL-7402 liver cancer cell line", "test": "CCK-8 proliferation inhibition", "conditions": "concentration of 30 μM", "excerpt": "as §2, §3, §4, §5, §6, §7"}, "[12]": {"tested_on": "MGC-803 gastric cancer cell line", "test": "CCK-8 proliferation inhibition", "conditions": "Homo sapiens, MGC-803, 72 h, concentration of 30 μM", "excerpt": "as §2, §3, §4, §5, §6, §7"}},
  "note": "Where two headings read alike, the source gives them in different places.",
  "data": [
    {"smiles": "CCCC[C@H](CC(=O)NO)C(=O)N1CC2(CCCC2)C[C@H]1C(=O)Nc1cnccn1", "note": "[Example 77]", "values": [
      {"measurement": "Anti-bacterial activity (MIC)", "setting": "[1]; strain EFA 15-1", "value": 32, "unit": "µg/mL"},
      {"measurement": "Anti-bacterial activity (MIC)", "setting": "[1]; strain EFA 15-2", "value": 32, "unit": "µg/mL"},
      {"measurement": "Anti-bacterial activity (MIC)", "setting": "[1]; strain EFA 15-3", "value": 32, "unit": "µg/mL"},
      {"measurement": "Anti-bacterial activity (MIC)", "setting": "[1]; strain EFA 15-4", "value": 32, "unit": "µg/mL"},
      {"measurement": "Anti-bacterial activity (MIC)", "setting": "[1]; strain EFA 15-5", "value": 32, "unit": "µg/mL"},
      {"measurement": "Anti-bacterial activity (MIC)", "setting": "[1]; strain EFA 15-6", "value": 32, "unit": "µg/mL"},
      {"measurement": "Anti-bacterial activity (MIC)", "setting": "[1]; strain EFA 15-9", "value": 16, "unit": "µg/mL"},
      {"measurement": "Anti-bacterial activity (MIC)", "setting": "[2]; strain EFM 15-1", "value": 32, "unit": "µg/mL"},
      {"measurement": "Anti-bacterial activity (MIC)", "setting": "[2]; strain EFM 15-2", "value": 32, "unit": "µg/mL"},
      {"measurement": "Anti-bacterial activity (MIC)", "setting": "[2]; strain EFM 15-3", "value": 32, "unit": "µg/mL"},
      {"measurement": "Anti-bacterial activity (MIC)", "setting": "[2]; strain EFM 15-4", "value": 2, "unit": "µg/mL"},
      {"measurement": "Anti-bacterial activity (MIC)", "setting": "[2]; strain EFM 15-5", "value": 2, "unit": "µg/mL"},
      {"measurement": "Anti-bacterial activity (MIC)", "setting": "[2]; strain EFM 15-6", "value": 2, "unit": "µg/mL"},
      {"measurement": "Anti-bacterial activity (MIC), strain ECO+ 15-1", "setting": "[3]; clinical isolate ECO+ 15-1", "value": 0.125, "unit": "µg/mL"},
      {"measurement": "Anti-bacterial activity (MIC), strain ECO+ 15-2", "setting": "[3]; clinical isolate ECO+ 15-2", "value": "> 32", "unit": "µg/mL"},
      {"measurement": "Anti-bacterial activity (MIC), strain ECO+ 15-3", "setting": "[3]; clinical isolate ECO+ 15-3", "value": "> 32", "unit": "µg/mL"},
      {"measurement": "Anti-bacterial activity (MIC), strain ECO+ 15-4", "setting": "[3]; clinical isolate ECO+ 15-4", "value": "> 32", "unit": "µg/mL"},
      {"measurement": "Anti-bacterial activity (MIC), strain ECO− 15-1", "setting": "[3]; clinical isolate ECO− 15-1", "value": "> 32", "unit": "µg/mL"},
      {"measurement": "Anti-bacterial activity (MIC), strain ECO− 15-2", "setting": "[3]; clinical isolate ECO− 15-2", "value": "> 32", "unit": "µg/mL"},
      {"measurement": "Anti-bacterial activity (MIC), strain ECO− 15-3", "setting": "[3]; clinical isolate ECO− 15-3", "value": "> 32", "unit": "µg/mL"},
      {"measurement": "Anti-bacterial activity (MIC), strain ECO− 15-4", "setting": "[3]; clinical isolate ECO− 15-4", "value": "> 32", "unit": "µg/mL"},
      {"measurement": "Anti-bacterial activity (MIC)", "setting": "[4]; strain BCA 14-1", "value": 1, "unit": "µg/mL"},
      {"measurement": "Anti-bacterial activity (MIC)", "setting": "[4]; strain BCA 14-4", "value": 2, "unit": "µg/mL"},
      {"measurement": "Anti-bacterial activity (MIC)", "setting": "[4]; strain BCA 14-5", "value": 0.125, "unit": "µg/mL"},
      {"measurement": "Anti-bacterial activity (MIC)", "setting": "[4]; strain BCA 14-6", "value": 0.5, "unit": "µg/mL"},
      {"measurement": "Anti-bacterial activity (MIC)", "setting": "[4]; strain BCA 14-7", "value": 0.5, "unit": "µg/mL"},
      {"measurement": "Anti-bacterial activity (MIC)", "setting": "[4]; strain BCA 14-8", "value": 0.5, "unit": "µg/mL"},
      {"measurement": "Anti-bacterial activity (MIC)", "setting": "[4]; strain BCA 14-10", "value": 0.25, "unit": "µg/mL"},
      {"measurement": "Anti-bacterial activity (MIC), strain MRSA 15-1", "setting": "[5]; clinical isolate MRSA 15-1", "value": 0.25, "unit": "µg/mL"},
      {"measurement": "Anti-bacterial activity (MIC), strain MRSA 15-2", "setting": "[5]; clinical isolate MRSA 15-2", "value": 0.5, "unit": "µg/mL"},
      {"measurement": "Anti-bacterial activity (MIC), strain MRSA 15-3", "setting": "[5]; clinical isolate MRSA 15-3", "value": 0.25, "unit": "µg/mL"},
      {"measurement": "Anti-bacterial activity (MIC), strain MRSA 15-4", "setting": "[5]; clinical isolate MRSA 15-4", "value": 0.5, "unit": "µg/mL"},
      {"measurement": "Anti-bacterial activity (MIC), strain MRSE 15-1", "setting": "[6]; clinical isolate MRSE 15-1", "value": 0.5, "unit": "µg/mL"},
      {"measurement": "Anti-bacterial activity (MIC), strain MRSE 15-2", "setting": "[6]; clinical isolate MRSE 15-2", "value": 2, "unit": "µg/mL"},
      {"measurement": "Anti-bacterial activity (MIC), strain MRSE 15-3", "setting": "[6]; clinical isolate MRSE 15-3", "value": 2, "unit": "µg/mL"},
      {"measurement": "Anti-bacterial activity (MIC), strain MRSE 15-7", "setting": "[6]; clinical isolate MRSE 15-7", "value": 2, "unit": "µg/mL"},
      {"measurement": "Anti-bacterial activity (MIC), strain MSSA 15-3", "setting": "[7]; clinical isolate MSSA 15-3", "value": 0.5, "unit": "µg/mL"},
      {"measurement": "Anti-bacterial activity (MIC), strain MSSA 15-4", "setting": "[7]; clinical isolate MSSA 15-4", "value": 0.125, "unit": "µg/mL"},
      {"measurement": "Anti-bacterial activity (MIC), strain MSSA 15-5", "setting": "[7]; clinical isolate MSSA 15-5", "value": 0.125, "unit": "µg/mL"},
      {"measurement": "Anti-bacterial activity (MIC), strain MSSA 15-6", "setting": "[7]; clinical isolate MSSA 15-6", "value": "> 32", "unit": "µg/mL"},
      {"measurement": "Anti-bacterial activity (MIC), strain MSSE 15-3", "setting": "[8]; clinical isolate MSSE 15-3", "value": 0.5, "unit": "µg/mL"},
      {"measurement": "Anti-bacterial activity (MIC), strain MSSE 15-4", "setting": "[8]; clinical isolate MSSE 15-4", "value": 2, "unit": "µg/mL"},
      {"measurement": "Anti-bacterial activity (MIC), strain MSSE 15-5", "setting": "[8]; clinical isolate MSSE 15-5", "value": 2, "unit": "µg/mL"},
      {"measurement": "Anti-bacterial activity (MIC), strain MSSE 15-6", "setting": "[8]; clinical isolate MSSE 15-6", "value": 0.125, "unit": "µg/mL"},
      {"measurement": "inhibition at 30 µM", "setting": "[9]; Table 5, read-out: Inhibition of proliferation, Colorectal cancer HCT116", "value": "≥ 30", "unit": "%"},
      {"measurement": "inhibition at 30 µM", "setting": "[9]; read-out: HCT116 inhibition rate/%", "value": 30, "unit": "%"},
      {"measurement": "inhibition at 30 µM", "setting": "[10]", "value": 16, "unit": "%"},
      {"measurement": "inhibition at 30 µM", "setting": "[11]; Homo sapiens, Bel-7402, 72 h", "value": "> 50", "unit": "%"},
      {"measurement": "Inhibition of proliferation, Liver cancer BEL-7402", "setting": "[11]; 72 hours, 30 µM", "value": 49, "unit": "%"},
      {"measurement": "inhibition at 30 µM", "setting": "[12]", "value": 19, "unit": "%"}
    ]}
  ]
}
